The values that follow come from patent US20240374606A1, “SUBSTITUTED PYRAZINE-2-CARBOXAMIDES AS HPK1 INHIBITORS FOR THE TREATMENT OF CANCER” (ASTRAZENECA AB, priority 2021, published 2024).

Where a name gives a salt, the structure may show the parent alone.

What all share (assay type): cell-based
The test system of one assay is human CD3+ T cells. In words: T cell assay (IL2 in supernatant, anti-CD3/anti-CD28 stimulation). The conditions noted are these: for EC50: T-cell, 4 hours anti-CD3/anti-CD28, read-out: IL-2 EC50.
Assay [1] has as its system pSLP76. In words: Flow pSLP76.
For assay [2], the system named is pSLP76. Put plainly: WB pSLP76.

Method for human CD3+ T cells: Cryo-preserved human CD3+ T cells are recovered in warm T cell media overnight. […] T cells are then left in a humidified incubator at 37° C. for 1 hour. […] Anti-CD28 antibody in T cell media is also added to the cells by Bravo liquid handler at 5 ug/mL or 1 μg/mL in a donor dependent manner. T cells are then incubated in a humidified incubator at 37° C. for 4 hours. […] IL2 is detected using a IL2 MultiCyt® QBeads® kit on an iQue Screener flow cytometer (Sartorius). Briefly, capture beads are diluted by 50× in the supplied capture bead diluent. […] Using a Bravo liquid handler, 10 ul cell culture supernatant is transferred to the v-bottom plate with diluted capture beads. The plate is then sealed in foil and incubate at room temperature on a plate shaker set to 900 rpm for 1 hour. At the end of incubation, 10 μL per well of the supplied detection reagent is added to the wells using a ThermoFisher multichannel pipette. The plate is then sealed in foil and incubate again at room temperature on a plate shaker set to 900 rpm for 2 hours before detection by iQue Screener. iQue Screener flow cytometer uses pre-configured analysis template supplied with the IL2 MultiCyt® QBeads® kit to detect IL2 in each sample wells.

Usually EC50 stands for the concentration giving half of the maximal effect. On to `Cc1nn(C2COC2)cc1Nc1nc(C2CC2)c(-c2cncc3c2ncn3C)nc1C(N)=O` [Example 224, 5-Cyclopropyl-6-(3-methylimidazo[4,5-c]pyridin-7-yl)-3-[[3-methyl-1-(oxetan-3-yl)pyrazol-4-yl]amino]pyrazine-2-carboxamide], for which, in the assay on human CD3+ T cells, the “Max IL-2 conc” value is 3.33 µM and the EC50 came out at 0.12 µM.
In turn, `CNc1nc(Nc2ccc(CN3C[C@H]4C[C@@H]3CO4)cc2F)c(C(N)=O)nc1-c1cncc2c1ncn2C` [Example 146, 3-[2-Fluoro-4-[[(1R,4R)-2-oxa-5-azabicyclo[2.2.1]heptan-5-yl]methyl]anilino]-5-(methylamino)-6-(3-methylimidazo[4,5-c]pyridin-7-yl)pyrazine-2-carboxamide] registered an EC50 in the assay on pSLP76 [1] of 0.065 µM. Also, in the assay with human CD3+ T cells, the “Max IL-2 conc” value was 0.37 µM and the EC50 was 0.023 µM.
Regarding `CNc1nc(Nc2cn(C3CCN(C)CC3)nc2C)c(C(N)=O)nc1-c1cccc2c1ncn2C` [Example 206, 5-(Methylamino)-6-(1-methylbenzimidazol-4-yl)-3-[[3-methyl-1-(1-methyl-4-piperidyl)pyrazol-4-yl]amino]pyrazine-2-carboxamide formate salt], the values for the EC50 in the assay on pSLP76 [1], in the assay with pSLP76 [2] and with human CD3+ T cells were 0.44 µM, 0.32 µM and 0.091 µM, respectively. Besides, the “Max IL-2 conc” value in the assay with human CD3+ T cells was determined as 1.11 µM.
In the case of `CNc1nc(Nc2cn(C(C)(C)C#N)nc2C)c(C(N)=O)nc1-c1cncc2c1ncn2C` [Example 211, 3-[[1-(1-Cyano-1-methyl-ethyl)-3-methyl-pyrazol-4-yl]amino]-5-(methylamino)-6-(3-methylimidazo[4,5-c]pyridin-7-yl)pyrazine-2-carboxamide], the EC50 in the assay with pSLP76 [2] stood at 0.34 µM; with human CD3+ T cells it was 0.276 µM. For the same molecule, the “Max IL-2 conc” value in the assay on human CD3+ T cells was determined as 3.33 µM.
Take `CNc1nc(Nc2ccc(CN3CC4(COC4)C3)cc2Cl)c(C(N)=O)nc1-c1cncc2c1ncn2C` [Example 148, 3-[2-Chloro-4-(2-oxa-6-azaspiro[3.3]heptan-6-ylmethyl)anilino]-5-(methylamino)-6-(3-methylimidazo[4,5-c]pyridin-7-yl)pyrazine-2-carboxamide formate salt]: the EC50 with pSLP76 [1] was 1.08 µM. In the assay with human CD3+ T cells, the “Max IL-2 conc” value was determined as 3.33 µM and the EC50 amounted to 0.325 µM.
In the case of `Cc1nn(CC(F)(F)F)cc1Nc1nc(C2CC2)c(-c2cncc3c2ncn3C)nc1C(N)=O` [Example 213, 5-Cyclopropyl-6-(3-methylimidazo[4,5-c]pyridin-7-yl)-3-[[3-methyl-1-(2,2,2-trifluoroethyl)pyrazol-4-yl]amino]pyrazine-2-carboxamide], the results for the EC50 in the assay with pSLP76 [1] and in the assay with human CD3+ T cells were 0.05 µM and 0.053 µM, respectively.
